# PubChem BioAssay AID1845194 (Molecular Pharmacology Branch, DTP, NCI, 2023)
# pIC50: −log10 of the molar value.
# System: 287954-098-R-J1 tumor spheroid viability
# Experiment: Anticancer human tumor 287954-098-R-J1 patient-derived Ewing sarcoma cell line growth inhibition
# Details: spheroids with HUVEC and MSC; for pIC50: curve of first compound; for viability, T/C: stronger effect = lower value
# Summary of the method: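 Single agents and combinations were tested on spheroids built from tumor cells plus HUVEC and hMSC, at half-log dilutions starting at or near clinical Cmax, else 10 microM; final DMSO 0.25% (v/v).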
# 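Also: spheroids exposed to compound for 7 days before viability readout.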
# 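For viability, T/C in this document: luminescent signal taken as surrogate of viable cell content; 100% = DMSO vehicle control viability and lower means growth inhibition.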
smiles,measurement,setting,value
Cn1ncnc1[C@H]1c2n[nH]c(=O)c3cc(F)cc(c23)N[C@@H]1c1ccc(F)cc1 + CC[C@@]1(O)C(=O)OCc2c1cc1n(c2=O)Cc2cc3c(CN(C)C)c(O)ccc3nc2-1,pIC50,second compound 0.003 µM,6.34
same,pIC50,second compound 0.00949 µM,7.13
same,pIC50,second compound 0.03 µM,> 8.02
same,pIC50,second compound 0.0949 µM,> 8.02
same,pIC50,second compound 0.3 µM,> 8.02
same,"viability, T/C","second compound 0.003 µM, first compound 0.00949 µM",99.9%
same,"viability, T/C","second compound 0.003 µM, first compound 0.03 µM",97.6%
same,"viability, T/C","second compound 0.003 µM, first compound 0.0949 µM",105%
same,"viability, T/C","second compound 0.003 µM, first compound 0.3 µM",76.4%
same,"viability, T/C","second compound 0.003 µM, first compound 0.949 µM",2.29%
same,"viability, T/C","second compound 0.003 µM, first compound 3 µM",2.4%
same,"viability, T/C","second compound 0.00949 µM, first compound 0.00949 µM",90.6%
same,"viability, T/C","second compound 0.00949 µM, first compound 0.03 µM",74.2%
same,"viability, T/C","second compound 0.00949 µM, first compound 0.0949 µM",45.6%
same,"viability, T/C","second compound 0.00949 µM, first compound 0.3 µM",2.19%
same,"viability, T/C","second compound 0.00949 µM, first compound 0.949 µM",2.05%
same,"viability, T/C","second compound 0.00949 µM, first compound 3 µM",2.02%
same,"viability, T/C","second compound 0.03 µM, first compound 0.00949 µM",2.23%
same,"viability, T/C","second compound 0.03 µM, first compound 0.03 µM",1.81%
same,"viability, T/C","second compound 0.03 µM, first compound 0.0949 µM",2.46%
same,"viability, T/C","second compound 0.03 µM, first compound 0.3 µM",2.34%
same,"viability, T/C","second compound 0.03 µM, first compound 0.949 µM",1.82%
same,"viability, T/C","second compound 0.03 µM, first compound 3 µM",2.07%
same,"viability, T/C","second compound 0.0949 µM, first compound 0.00949 µM",1.93%
same,"viability, T/C","second compound 0.0949 µM, first compound 0.03 µM",1.99%
same,"viability, T/C","second compound 0.0949 µM, first compound 0.0949 µM",2.15%
same,"viability, T/C","second compound 0.0949 µM, first compound 0.3 µM",1.75%
same,"viability, T/C","second compound 0.0949 µM, first compound 0.949 µM",2.09%
same,"viability, T/C","second compound 0.0949 µM, first compound 3 µM",1.72%
same,"viability, T/C","second compound 0.3 µM, first compound 0.00949 µM",1.85%
same,"viability, T/C","second compound 0.3 µM, first compound 0.03 µM",1.99%
same,"viability, T/C","second compound 0.3 µM, first compound 0.0949 µM",1.97%
same,"viability, T/C","second compound 0.3 µM, first compound 0.3 µM",1.59%
same,"viability, T/C","second compound 0.3 µM, first compound 0.949 µM",1.85%
same,"viability, T/C","second compound 0.3 µM, first compound 3 µM",1.48%
